Assay results taken from patent US8067422B2, “Crystal form of phenylamino pyrimidine derivatives” (Natco Pharma Limited, priority 2008, dated 2011).
Entries after “also recorded” stand apart in the source; their conditions may differ.

Key:
K562 cells [1] = experiment: Anti-CML activity in nude mice implanted with K562 cells (leukemia growth index); assay type: in vivo; conditions: ip injections
Excerpt: Nude mice (nu/nu) were implanted with K562 cells (1×10^6) via tail vein.
Blood was drawn via the tail vein. Quantitative analysis of LGI was graphically represented.

K562 cells [2] = experiment: Spleenic enlargement and spleen Crk immunocytochemistry in K562 implanted nude mice; assay type: in vivo; conditions: ip injections
Protocol: Control mice were sacrificed on day 42 when secondary leukemia symptoms were observed, such as abdominal swelling and lack of circulation in the peripherals causing loss of digits with red spots under the skin surface. Spleen and any secondary tumors were harvested, fixed in formaldehyde and paraffin embedded as per standard protocols. Paraffin section were obtained and processed for immunocytochemistry. The rehydrated sections were treated with 0.3% H2O2 to inactivate any native peroxidases prior to immuno-probing. The sections were blocked with filter sterilized (0.22 μm) 1% BSA-PBS at room temperature for 1 h. Following blocking, the sections were immuno-probed with a human specific anti-Crk monoclonal primary antibody raised in rabbit against a synthetic peptide corresponding to residues in the SH2 domain, near the N-term of human CrkL protein (Abcam, Cambridge, Mass., USA) in 1% BSA-PBS overnight. Secondary antibody (anti-rabbit) conjugated to HRP was used to detect the presence of primary antibody. The sections were briefly rinsed three times in PBS solution after immuno-probing with secondary antibody, and DAB HRP substrate was added per manufacture's instructions (Sigma St Louis Mo. USA). The reaction was allowed to proceed until sharp contrast between positive and negative controls was observed. For negative controls primary antibody were eliminated. Leukemic mice spleen served as positive controls.
Mice were sacrificed after a decrease in LGI was observed and spleen harvested. […] Control mice also developed random subcutaneous tumors showing Crk expression, indicative of the presence of K562 cells.

[3] = test system: Baf3 murine leukemia cells (T315I); experiment: Blast cell count in nude mice implanted with Baf3 T315I cells; assay type: in vivo; conditions: Baf3T315I; Imatinib 10 mg/kg, AN019 20 mg/kg, AN024 20 mg/kg, oral gavage or ip; day 42
Excerpt: (§1) Blood smears were obtained via the tail vein or via the femoral vein every 6th day and blast cells counted and graphically represented.
(§2) Abdominal swelling and decrease in activity was monitored daily, blood smear taken via the tail vein or the femoral vein every 6th day and H&E stained as per standard protocols. 42 days after implantation, mice were sacrificed and spleens harvested.
(§3) Nude mice were intraperitoneally implanted with Baf3 mutant cells (wt, T315I, M351T or E255K). […] Blood was drawn from the femoral vein or tail vein every 6th day and blast cell count determined and graphically represented.

[4] = test system: Baf3 murine leukemia cells (M351T); experiment: Blast cell count in nude mice implanted with Baf3 M351T cells; assay type: in vivo; conditions: Baf3M351T; Imatinib 10 mg/kg, AN019 20 mg/kg, AN024 20 mg/kg, oral gavage or ip; day 42
Excerpt: as §1, §2, §3

[5] = test system: Baf3 murine leukemia cells (E255K); experiment: Blast cell count in nude mice implanted with Baf3 E255K cells; assay type: in vivo; conditions: Baf3 E225K (E255K); Imatinib 10 mg/kg, AN019 20 mg/kg, AN024 20 mg/kg, oral gavage or ip; day 42
Excerpt: as §1, §2, §3

ZR71 breast cancer cells [6] = experiment: Matrigel invasion assay (modified Boyden chamber), ZR-71; assay type: cell-based; conditions: ZR-71
Protocol: (§4) The in vitro invasiveness of 4910, 5310 and U87 glioma cells and MDAMB231 and ZR71 breast cancer cells in the presence of specified concentrations of compounds were assessed using a modified Boyden chamber assay. Cells were treated with these compounds for 48 h. 1×10^6 cells were suspended in 600 μl of serum-free medium supplemented with 0.2% BSA and placed in the upper compartment of the transwell chambers (Corning Costar Fischer Scientific Cat #07-200-158, Pittsburgh Pa.) coated with Matrigel (0.7 mg/ml). The lower compartment of the chamber was filled with 200 μl of serum medium and the cells were allowed to migrate for 24 h. After incubation, the cells were fixed and stained with Hema-3 and quantified as previously described (Mohanam et al. 1993). The migrated cells were imaged microscopically to determine the reduction in invasiveness induced by the compounds of this invention.

4910 glioma cells = experiment: Matrigel invasion assay (modified Boyden chamber), 4910; assay type: cell-based, human
Protocol: as §4

ZR71 breast cancer cells [7] = experiment: In vitro angiogenic assay, ZR-71 conditioned media on human dermal endothelial cells; assay type: cell-based; conditions: ZR-71 cells; radiation not distinguished
Protocol: (§5) The in vitro angiogenesis of 4910, 5310 and U87 glioma cells and MDAMB231 and ZR71 breast cancer cells in the presence of specified concentrations of compounds were determined as follows, cells (2×10^4/well) were seeded in 8-well chamber slides and were treated with various concentrations of test compounds. After a 24 h incubation period, the conditioned media was removed and added to a 4×10^4 human dermal endothelial cell (monolayer in 8-well chamber slides) and the human dermal endothelial cells were allowed to grow for 72 h. Cells were then fixed in 3.7% formaldehyde and stained with H&E and photographed.

5310 glioma cells = experiment: In vitro angiogenic assay, 5310 conditioned media on human dermal endothelial cells; assay type: cell-based; conditions: 5310 cells
Protocol: as §5

[8] = test system: AKT, ERK and Pi3k in 5310 glioma cells; experiment: Western blot analysis, 5310; assay type: cell-based
Protocol: (§6) Western blot analysis of 4910, 5310 and U87 glioma cells and MDAMB231 and ZR71 breast cancer cells in the presence of specified concentrations of compounds were assessed as per standard protocols. Cells were treated with AN019, AN024 or Temozolomide at the specified concentrations. 24 h after treatment, cells were collected and cell lysates extracted. Equal quantities of proteins were fractionated by SDS-PAGE. The fractionated proteins were blotted on to nylon membranes and immunoprobed for AKT, ERK and Pi3k. Breast cancer cell protein isolates were additionally immunoprobed for EGFR, ErbB1, ErbB2 and ErbB3.

[9] = test system: AKT, ERK and Pi3k in ZR71 breast cancer cells; experiment: Western blot analysis, ZR71; assay type: cell-based
Protocol: as §6

[10] = test system: pAKT and pERK in glioma and breast cancer cells; experiment: Western blot analysis, pAKT and pERK (cell line not specified); assay type: cell-based; conditions: both with and without radiation
Protocol: as §6

[11] = test system: 4910 human glioma xenograft cells; experiment: Glioma radiation study, nude mice intracranially implanted with 4910 cells; assay type: in vivo
Protocol: Nude mice were intracranially implanted with 4910 human glioma xenograft cells (1×10^6 cells). Ten days after implantation mice were treated with AN019, AN024 or temozolomide with or without radiation (5 Gy/week). The experiment was terminated at day 40 post implantation.

in vivo = conditions: mouse, po
K562 = experiment: ED50 (po) in leukemic mice (K562)

With `Cc1ccc(NC(=O)c2cc(C(F)(F)F)cc(C(F)(F)F)c2)cc1Nc1nccc(-c2cccnc2)n1` [AN019, (3,5-bis trifluoromethyl)-N-[4-methyl-3-(4-pyridin-3yl-pyrimidin-2ylamino)-phenyl]-benzamide] the “Physiological, phenotypic or behavioral abnormality” value (K562 cells [1]) was “no abnormal physiological, phenotypic or behavioral abnormality”, the “Crk expression in spleen (immunohistochemistry)” value (K562 cells [2]) was “basal levels of Crk expression; also recorded: only basal level expression” and the “Spleenic enlargement (gross observation)” value (K562 cells [2]) was “did not show any spleenic enlargement”. For the same compound, the “Blast cell count in blood smears” value [3] was “significant decrease in blast cell count”, the “Blast cell count in blood smears” value [4] was “significant decrease in blast cell count” and the “Blast cell count in blood smears” value [5] was “significant decrease in blast cell count”. The “±Change in invasion after radiation” value (ZR71 breast cancer cells [6]) was −14%, the “±Change in invasion after radiation” value (4910 glioma cells; 4910) was −27% and the “+Radiation % Invasion” value (4910 glioma cells; 4910, with radiation, 48 h treatment) was 15%. The Inhibition of angiogenesis (ZR71 breast cancer cells [7]) was “complete inhibition of angiogenesis”, the Inhibition of angiogenesis (5310 glioma cells; after radiation) was “inhibition of angiogenesis was greater in control conditions than after radiation treatment” and the Inhibition of angiogenesis (5310 glioma cells; control conditions (without radiation)) was “inhibition of angiogenesis was greater in control conditions than after radiation treatment”. The “AKT expression levels (Western blot)” value [8]; 5310 was “decrease in AKT expression levels”, the “PI3k levels (Western blot)” value ([8]; 5310, after radiation) was “reappeared after radiation treatment” and the “PI3k levels (Western blot)” value ([8]; 5310, without radiation) was “almost undetectable”. For the same compound, the “AKT levels (Western blot)” value ([9]; ZR71, after radiation) was “enhanced after radiation”, the “AKT levels (Western blot)” value ([9]; ZR71, unirradiated) was “decrease in AKT levels” and the “PI3k levels (Western blot)” value ([9]; ZR71, with radiation) was “absent”. For the same compound, the “PI3k levels (Western blot)” value ([9]; ZR71, without radiation) was “absent”, the “pERK levels (Western blot)” value [10] was “reduced significantly” and the “Intracranial tumour size and appearance” value ([11]; with radiation (5 Gy/week)) was “tumor size was significantly reduced”. The “Intracranial tumour size and appearance” value ([11]; without radiation) was “tumours similar to AN024 treated animals”, the LD50 (in vivo) was 1130 mg/kg and the “Therapeutic index - LD50/ED50” value (K562; Leukemic mice (K562)) was 98.5. It also gave an ED50 (K562; Mus musculus, K562, po, read-out: ED50 (po) Mice) of 11.5 mg/kg.
